According to EP0954520B1, “ISOFLAVONE DERIVATIVES, PROCESSES FOR THE PREPARATION THEREOF AND PHARMACEUTICAL COMPOSITIONS CONTAINING THEM” (CHIESI FARMACEUTICI S.p.A., priority 1997, dated 1998):

Assays:
estrogen receptors = target: T1, estrogen receptors (Bos taurus, UniProt P49884); assay: biochemical
T1 sequence (P49884 1-596): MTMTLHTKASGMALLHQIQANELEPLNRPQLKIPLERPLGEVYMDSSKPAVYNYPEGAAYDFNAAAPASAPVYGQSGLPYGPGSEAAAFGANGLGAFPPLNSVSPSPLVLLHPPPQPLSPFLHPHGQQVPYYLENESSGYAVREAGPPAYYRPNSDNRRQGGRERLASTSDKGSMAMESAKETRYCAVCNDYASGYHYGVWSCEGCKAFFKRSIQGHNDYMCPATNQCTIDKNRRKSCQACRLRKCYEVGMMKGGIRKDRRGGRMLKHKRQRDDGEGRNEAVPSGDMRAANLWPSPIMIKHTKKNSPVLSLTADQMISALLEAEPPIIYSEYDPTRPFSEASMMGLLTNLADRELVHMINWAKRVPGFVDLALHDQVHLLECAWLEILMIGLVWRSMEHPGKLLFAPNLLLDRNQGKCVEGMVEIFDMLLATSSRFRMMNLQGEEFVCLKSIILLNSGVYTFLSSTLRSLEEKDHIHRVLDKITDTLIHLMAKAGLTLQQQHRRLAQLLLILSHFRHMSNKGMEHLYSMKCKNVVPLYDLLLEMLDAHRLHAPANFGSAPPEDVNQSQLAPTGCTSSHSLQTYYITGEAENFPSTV
Protocol: To determine the estrogen receptor binding affinity of CHF 3316.01 calf uterus, prepared as previously described in McGuire W. L. et al. Eds. Estrogen receptors in human breast cancer, Raven Press N. Y., (1975), was used as source of estrogen receptors.
Displacement curves were generated using final concentrations of 1.5 nM 17b-[3H]estradiol as radioligand and (1)/(2) [formula] -log unit increments of CHF 3316.01, ranging from 0.1 to 10,000 nM.
Incubation time was 24 hr at 4°C, after which dextran-treated charcoal was added. The suspension was then centrifuged, and radioactivity in the supernatant fluid was determined by scintillation counting. Percent binding was determined in duplicate at each concentration of displacing ligand.
IC50 value for 50 % inhibition of 17b-[3H]estradiol binding and Ki value were determined by non linear regression analysis of log concentration-displacement curves.

immature rats = assay: Uterotrophic and antiuterotrophic actions in immature rat assay (uterine weight); assay type: in vivo; details: for suppression of estradiol's activity (uterotrophic action): with 17b-estradiol
Protocol: The uterotrophic and antiuterotrophic actions of CHF 3316.01 were studied to determine the estrogenic and antiestrogenic activity of CHF 3316.01 in immature rat assay. All experiments were conducted using subcutaneous injection of the test compound as a solution in 20% Solutol HS 15. Each experiment was accompained by a vehicle control group and a positive control group (17b-estradiol 2 mg/kg by subcutaneous injection). The test protocol was based on the immature rat assay protocol described by […]. and […] Endocr (1978), 99, 445-464. Animals were dosed on 3 successive days with the appropriate material. Animals were killed by an overdose of CO2 24 hr after the final dose. The body of the uterus was cut just above its junction with the cervix and at the junction of the uterine horns with the ovaries. The uterus was then weighed. Generally, 6 animals per exposure group were employed. The daily dose levels used for CHF 3316.01 were 10 and 20 mg/kg.

[1] = tested on: fetal rat long bones (radius and ulna); assay: Bone resorption in fetal rat long bone culture (bPTH 1-34 induced 45Ca release); details: for inhibition of 45Ca release induced by bPTH: bPTH 1-34 5 nM, 5 days culture
[2] = tested on: fetal rat long bones (radius and ulna); assay: as above; assay type: cell-based; details: 5 nM, day 5; n=7
Protocol: Pregnant Sprague-Dawley rats were injected subcutaneously with 0.2 mCi 45Ca (CaCl2, >10 Ci/g) on the 18th day of gestation (day of vaginal plug discovery equals day 0 of pregnancy).
To remove freely exchangeable 45Ca, bones were pre-incubated for 24 hours in 48-well polystyrene culture dishes (Costar, Cambridge, MA) containing 500 µl of a culture medium (BGJ-B medium) in an air humidified incubator at 37°C in 5% C02.
The medium was changed after 2 days.

Question: What does the source list for Cl.O=C(c1ccc(OCCN2CCCCC2)cc1)c1oc2cc(O)ccc2c(=O)c1-c1ccc(O)cc1 [CHF 3316.01, 4',7-dihydroxy-2-(4-(2-(N-piperidinyl)ethyloxy)benzoyl)isoflavone hydrochloride]?
Answer: Ki (estrogen receptors): 3.9 ± 0.3 nM; suppression of estradiol's activity (uterotrophic action) (immature rats; 10 mg/Kg per day subcutaneous, 3 days): 63%; suppression of estradiol's activity (uterotrophic action) (immature rats; 20 mg/Kg per day subcutaneous, 3 days): 78%; uterotrophic activity (immature rats; 10 and 20 mg/kg per day subcutaneous, 3 days): devoid of uterotrophic activity; inhibition of 45Ca release induced by bPTH ([1]; 3 mM (so in the source)): 24.81±2.14%; inhibition of 45Ca release induced by bPTH ([1]; 10 mM (so in the source)): 37.86%; inhibition of 45Ca release induced by bPTH ([1]; 30 mM (so in the source)): full inhibition; IC50 ([1]; Rattus norvegicus, read-out: apparent IC50 value): 10000 nM; potency relative to M3 (more potent) ([1]; versus metabolite 3 of ipriflavone M3): ~2 fold

Question: “bPTH 1-34: bovine parathyroid hormone fragment 1-34, used to induce resorption (AVSEIQFMHNLGKHLSSMERVEWLRKKLQDVHNF; Parathyroid hormone; UniProt P01268 32-65, looked up, fragment)” was tested. Which “45Ca release, treated over control (T/C) ratio” value [2] did it give?
Answer: 4.27±0.33

Question: How did the inhibition at 5 µM ([1]; Rattus norvegicus, 120 h, read-out: inhibition of resorption) turn out when O=P(O)(O)C(Cl)(Cl)P(=O)(O)O [Disodium clodronate, dichloromethylene bisphosphonate, reference compound] was run?
Answer: 90 ± 5%

Question: O=c1c(-c2ccc(O)cc2)coc2cc(O)ccc12 [Example M2, 4',7-dihydroxyisoflavone, reference compound] was tested. Which Ki (estrogen receptors) did it give?
Answer: 127 nM

Question: For C[C@]12CC[C@@H]3c4ccc(O)cc4CC[C@H]3[C@@H]1CC[C@@H]2O [17b-estradiol, reference compound], which “increase of uterine weight above vehicle control group” value (immature rats; 2 mg/kg subcutaneous, three successive daily injections, immature rats) is on record?
Answer: 93%
